3 compounds from ChEMBL document CHEMBL1148620 (J Med Chem, 2006) can be followed below.

SMILES strings stand for the structures.

Test [1] deals with T1, Melanocortin receptor 4 (Homo sapiens, UniProt P32245, Y287A). Briefly: Displacement of [125I]NDP-alpha-MSH from mutant MC4R Y287A expressed in HEK293 cells. Type of test: cell-based.
Test [2] has as its target T2, Melanocortin receptor 4 (Homo sapiens, UniProt P32245, Y287F). Nature of the test: Displacement of [125I]NDP-alpha-MSH from mutant MC4R Y287F expressed in HEK293 cells. Type of test: cell-based. (Displacement assays read how much labelled ligand stays bound in the presence of the test substance.)
Test [3] deals with T3, Melanocortin receptor 4 (Homo sapiens, UniProt P32245, F184A). Briefly: Displacement of [125I]NDP-alpha-MSH from mutant MC4R F184A expressed in HEK293 cells. Type of test: cell-based.
T3 sequence (P32245 whole entry F184A): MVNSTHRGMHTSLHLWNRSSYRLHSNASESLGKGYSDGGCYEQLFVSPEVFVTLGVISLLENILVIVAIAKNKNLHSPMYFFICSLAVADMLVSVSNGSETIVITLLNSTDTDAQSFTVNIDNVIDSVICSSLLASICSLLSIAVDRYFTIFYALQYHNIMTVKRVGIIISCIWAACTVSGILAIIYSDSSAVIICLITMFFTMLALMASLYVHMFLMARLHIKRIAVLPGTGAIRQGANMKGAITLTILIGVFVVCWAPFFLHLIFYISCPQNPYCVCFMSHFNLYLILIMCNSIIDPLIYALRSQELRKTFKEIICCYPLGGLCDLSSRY
Test [4] deals with T4, Melanocortin receptor 4 (Homo sapiens, UniProt P32245, I125A). Nature of the test: Displacement of [125I]NDP-alpha-MSH from mutant MC4R I125A expressed in HEK293 cells. Type of test: cell-based.
T4 sequence (P32245 whole entry I125A): as the sequence (P32245 whole entry F184A) above, with I125A, A184F counted along it
For test [5], the target named is T5, Melanocortin receptor 4 (Homo sapiens, UniProt P32245). Briefly: Antagonist activity at the human wild type MC4R expressed in HEK293 cells by cAMP accumulation. Type of test: functional, cell-based. (cAMP levels reflect the balance of adenylyl cyclase and phosphodiesterase activity.)
T5 sequence (P32245 whole entry): as the sequence (P32245 whole entry F184A) above, with A184F counted along it
The target in test [6] is T6, Melanocortin receptor 4 (Homo sapiens, UniProt P32245, Y268A). Nature of the test: Antagonist activity at the mutant MC4R Y268A expressed in HEK293 cells by cAMP accumulation. Type of test: functional, cell-based.
T6 sequence (P32245 whole entry Y268A): as the sequence (P32245 whole entry F184A) above, with A184F, Y268A counted along it
The target of test [7] is T7, Melanocortin receptor 4 (Homo sapiens, UniProt P32245, Y268F). Briefly: Antagonist activity at the mutant MC4R Y268F expressed in HEK293 cells by cAMP accumulation. It is filed as functional, cell-based.
T7 sequence (P32245 whole entry Y268F): as the sequence (P32245 whole entry F184A) above, with A184F, Y268F counted along it
Test [8] deals with T1, Melanocortin receptor 4. Nature of the test: Antagonist activity at the mutant MC4R Y287A expressed in HEK293 cells by cAMP accumulation. It is filed as functional, cell-based.
Test [9] has as its target T2, Melanocortin receptor 4. Briefly: Antagonist activity at the mutant MC4R Y287F expressed in HEK293 cells by cAMP accumulation. It is filed as functional, cell-based.
The target in test [10] is T7, Melanocortin receptor 4. Nature of the test: Displacement of [125I]NDP-alpha-MSH from mutant MC4R Y268F expressed in HEK293 cells. Type of test: cell-based.
Test [11] concerns the target T6, Melanocortin receptor 4. Briefly: Displacement of [125I]NDP-alpha-MSH from mutant MC4R Y268A expressed in HEK293 cells. Type of test: cell-based.
In test [12] the target is T3, Melanocortin receptor 4. Nature of the test: Antagonist activity at the mutant MC4R F184A expressed in HEK293 cells by cAMP accumulation. Type of test: functional, cell-based.
Test [13] deals with T4, Melanocortin receptor 4. Nature of the test: Antagonist activity at the mutant MC4R I125A expressed in HEK293 cells by cAMP accumulation. It is filed as functional, cell-based.
Test [14] addresses T8, Melanocortin receptor 4 (Homo sapiens, UniProt P32245, I291A). Nature of the test: Antagonist activity at the mutant MC4R I291A expressed in HEK293 cells by cAMP accumulation. It is filed as functional, cell-based.
The target of test [15] is T5, Melanocortin receptor 4. Nature of the test: biochemical.
Test [16] has as its target T9, Melanocortin receptor 4 (Homo sapiens, UniProt P32245, I129A). Nature of the test: biochemical.
Test [17] has as its target T5, Melanocortin receptor 4. Nature of the test: Agonist activity at the human wild type MC4R expressed in HEK293 cells by cAMP accumulation. It is filed as functional, cell-based.
Test [18] concerns the target T6, Melanocortin receptor 4. Nature of the test: Agonist activity at the mutant MC4R Y268A expressed in HEK293 cells by cAMP accumulation. Type of test: functional, cell-based.
Test [19] has as its target T7, Melanocortin receptor 4. Nature of the test: Agonist activity at the mutant MC4R Y268F expressed in HEK293 cells by cAMP accumulation. It is filed as functional, cell-based.
For test [20], the target named is T1, Melanocortin receptor 4. Nature of the test: Agonist activity at the mutant MC4R Y287A expressed in HEK293 cells by cAMP accumulation. Type of test: functional, cell-based.
Test [21] deals with T2, Melanocortin receptor 4. Nature of the test: Agonist activity at the mutant MC4R Y287F expressed in HEK293 cells by cAMP accumulation. Type of test: functional, cell-based.
Test [22] concerns the target T3, Melanocortin receptor 4. Briefly: Agonist activity at the mutant MC4R F184A expressed in HEK293 cells by cAMP accumulation. Type of test: functional, cell-based.
The target in test [23] is T4, Melanocortin receptor 4. Briefly: Agonist activity at the mutant MC4R I125A expressed in HEK293 cells by cAMP accumulation. Type of test: functional, cell-based.
The target in test [24] is T8, Melanocortin receptor 4. Nature of the test: Agonist activity at the mutant MC4R I291A expressed in HEK293 cells by cAMP accumulation. It is filed as functional, cell-based.
Test [25] deals with T9, Melanocortin receptor 4.

T9 sequence (P32245 whole entry I129A): as the sequence (P32245 whole entry F184A) above, with I129A, A184F counted along it
T8 sequence (P32245 whole entry I291A): as the sequence (P32245 whole entry F184A) above, with A184F, I291A counted along it
T1 sequence (P32245 whole entry Y287A): as the sequence (P32245 whole entry F184A) above, with A184F, Y287A counted along it
T2 sequence (P32245 whole entry Y287F): as the sequence (P32245 whole entry F184A) above, with A184F, Y287F counted along it

Consider `CC[C@H](C)[C@@H]1NC(=O)[C@H]([C@@H](C)O)NC(=O)[C@H](Cc2c[nH]c3ccccc23)NC(=O)[C@H](CCCN=C(N)N)NC(=O)[C@@H](Cc2cccc3ccccc23)NC(=O)[C@H](Cc2c[nH]cn2)NC(=O)[C@H]([C@@H](C)O)NC(=O)[C@H](Cc2ccc(O)cc2)NC(=O)[C@H]([C@@H](C)O)NC(=O)[C@@H]2CCCN2C1=O`, for which the inhibition constant (Ki) (usually the equilibrium dissociation constant of an inhibitor or competing ligand from its target) in test [1] worked out at 18 nM; in test [2] it was 1.7 nM; in test [3], 0.71 nM; in [4], 1.3 nM; in [10], 0.92 nM; in [11] it was 40 nM. Besides, the results for the Ki in test [15] and in test [16] were 1.5 nM and 14 nM, respectively. In addition, the IC50 – broadly, the concentration that gives 50% inhibition – worked out at 16 nM in [5]; 248 nM in test [6]; 17 nM in test [7]; 121 nM in [8]; 8.8 nM in test [9]; 11 nM in test [12]. In addition, the 50% inhibitory concentration (IC50) came to 5.8 nM in [13] and 22 nM in [14].
As for `CN(C)[C@H]1C[C@@H](C(=O)N2CCC(Cn3cncn3)(C3CCCCC3)CC2)[C@H](c2ccc(Cl)cc2)C1`, the Ki in [1] is 2120 nM; in test [2], 890 nM; in test [3], 114 nM; in [4], 1250 nM; in test [10], 275 nM; in test [11], 1020 nM. The inhibition constant Ki amounted to 305 nM in test [15] and 3100 nM in test [16]. For the same compound, the EC50 (commonly the concentration giving half of the maximal effect) in test [17] is 9.5 nM; in [18], 33 nM; in test [19], 6.6 nM; in [20], 418 nM; in [21] it was 10 nM; in [22], 1.02 nM. Also, the 50% effective concentration (EC50) was 53 nM in [23], above 1000 nM in test [24] and 1520 nM in test [25].
Regarding `CC[C@H](C)[C@@H]1NC(=O)[C@H]([C@@H](C)O)NC(=O)[C@H](Cc2c[nH]c3ccccc23)NC(=O)[C@H](CCCN=C(N)N)NC(=O)[C@@H](Cc2ccccc2)NC(=O)[C@H](Cc2cnc[nH]2)NC(=O)[C@H]([C@@H](C)O)NC(=O)[C@H](Cc2ccc(O)cc2)NC(=O)[C@H](CO)NC(=O)[C@@H]2CCCN2C1=O`, the Ki in [1] turned out to be 1490 nM; in test [2], 90 nM; in test [3] it was 29 nM; in [4], 111 nM; in [10], 83 nM; in [11], 1370 nM. For the same compound, the Ki in test [15] was 59 nM; in test [16], 710 nM. Besides, the EC50 came to 11 nM in test [17]; 270 nM in [18]; 12 nM in test [19]; 328 nM in test [20]; 9.5 nM in [21]; 3.2 nM in test [22]. The figures for the EC50 in test [23], in [24] and in [25] were 202 nM, 250 nM and 250 nM, respectively.
